Laboratory results as given in PubChem BioAssay (NCI).
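Method: 48-hour compound exposure of cells in 96-well plates, five concentrations, linear interpolation of endpoints. GI50 = concentration required for 50% inhibition of growth. TGI marks complete inhibition of growth.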 *1 amine or outer side, *2 acyl side, *3 side chain or, on linkers, in order; H or OH if unused. Where a SMILES comes first, the peptide text is derived from it. Bridges are numbered along the chain shown (N, C = ends). Roman numbers before positions name the chains, in order. [ ]: non-standard residue; d: D form. Actinocin(9to1) = Cc1c2oc3c(C)ccc(C(=O)[*:1])c3nc-2c(C(=O)[*:2])c(N)c1=O; NMeV = CN[CH](C(=O)O)C(C)C; Sar = CNCC(=O)O

Legend:
Experiment in all cases: NCI anticancer screen, dose series, 48 h
CCRF-CEM leukemia = tested on: CCRF-CEM leukemia
SNB-19 CNS = tested on: SNB-19 CNS
SF-539 CNS = tested on: SF-539 CNS
LOX IMVI melanoma = tested on: LOX IMVI melanoma
SK-MEL-28 melanoma = tested on: SK-MEL-28 melanoma
TK-10 renal = tested on: TK-10 renal
HS 578T breast = tested on: HS 578T breast
HCT-15 colon = tested on: HCT-15 colon
RXF 393 renal = tested on: RXF 393 renal
M14 melanoma = tested on: M14 melanoma
SK-MEL-5 melanoma = tested on: SK-MEL-5 melanoma
RPMI-8226 leukemia = tested on: RPMI-8226 leukemia
SF-268 CNS = tested on: SF-268 CNS
HOP-62 NSCLC = tested on: HOP-62 NSCLC
OVCAR-5 ovarian = tested on: OVCAR-5 ovarian
DU-145 prostate = tested on: DU-145 prostate
T-47D breast = tested on: T-47D breast
NCI-H23 lung = tested on: NCI-H23 lung
NCI-H226 lung = tested on: NCI-H226 lung
SF-295 CNS = tested on: SF-295 CNS
MDA-MB-231 breast = tested on: MDA-MB-231 breast
UACC-62 melanoma = tested on: UACC-62 melanoma
NCI/ADR-RES ovarian = tested on: NCI/ADR-RES ovarian
UACC-257 melanoma = tested on: UACC-257 melanoma
NCI-H522 lung = tested on: NCI-H522 lung
PC-3 prostate = tested on: PC-3 prostate
OVCAR-8 ovarian = tested on: OVCAR-8 ovarian
MDA-MB-435 = tested on: MDA-MB-435
EKVX NSCLC = tested on: EKVX NSCLC
BT-549 breast = tested on: BT-549 breast
KM12 colon = tested on: KM12 colon
MALME-3M melanoma = tested on: MALME-3M melanoma
SN12C renal = tested on: SN12C renal
MCF7 breast = tested on: MCF7 breast
OVCAR-4 ovarian = tested on: OVCAR-4 ovarian
HT29 colon = tested on: HT29 colon
ACHN renal = tested on: ACHN renal
SK-OV-3 ovarian = tested on: SK-OV-3 ovarian
SW-620 colon = tested on: SW-620 colon
SK-MEL-2 melanoma = tested on: SK-MEL-2 melanoma
786-0 renal = tested on: 786-0 renal
MOLT-4 leukemia = tested on: MOLT-4 leukemia
CAKI-1 renal = tested on: CAKI-1 renal
IGROV1 ovarian = tested on: IGROV1 ovarian
HOP-92 NSCLC = tested on: HOP-92 NSCLC
HCT-116 colon = tested on: HCT-116 colon
HL-60(TB) leukemia = tested on: HL-60(TB) leukemia
OVCAR-3 ovarian = tested on: OVCAR-3 ovarian
NCI-H460 lung = tested on: NCI-H460 lung
UO-31 renal = tested on: UO-31 renal
U251 CNS = tested on: U251 CNS
SR leukemia = tested on: SR leukemia
A498 renal = tested on: A498 renal
COLO 205 colon = tested on: COLO 205 colon
K-562 leukemia = tested on: K-562 leukemia
SNB-75 CNS = tested on: SNB-75 CNS

Cc1c2oc3c(C)ccc(C(=O)OC(C)C4NC(=O)C(C(C)C)N(C)C(=O)CN(C)C(=O)C5CCCN5C(=O)C(C(C)C)NC4=O)c3nc-2c(C(=O)OC(C)C2NC(=O)C(C(C)C)N(C)C(=O)CN(C)C(=O)C3CCCN3C(=O)C(C(C)C)NC2=O)c(N)c1=O (stereo not drawn) (I: cyclo([Sar][NMeV]TVP) / II: cyclo([Sar][NMeV]TVP); linker I:3-II:3 via Actinocin(9to1); configuration not given here)
GI50 (CCRF-CEM leukemia): < 11.1 nM
TGI (CCRF-CEM leukemia): > 66300 nM
GI50 (SNB-19 CNS): < 10 nM
TGI (SNB-19 CNS): > 55500 nM
GI50 (SF-539 CNS): < 10 nM
TGI (SF-539 CNS): 65.6 nM
GI50 (LOX IMVI melanoma): < 10 nM
TGI (LOX IMVI melanoma): > 35000 nM
GI50 (SK-MEL-28 melanoma): < 10 nM
TGI (SK-MEL-28 melanoma): 30.7 nM
GI50 (TK-10 renal): < 12.7 nM
TGI (TK-10 renal): 894 nM
GI50 (HS 578T breast): 19.2 nM
GI50 (HCT-15 colon): 39.6 nM
TGI (HCT-15 colon): > 100000 nM
GI50 (RXF 393 renal): < 10 nM
TGI (RXF 393 renal): 18.5 nM
GI50 (M14 melanoma): 11.7 nM
TGI (M14 melanoma): 51.7 nM
GI50 (SK-MEL-5 melanoma): < 10 nM
TGI (SK-MEL-5 melanoma): 16.9 nM
GI50 (RPMI-8226 leukemia): < 10 nM
TGI (RPMI-8226 leukemia): 58.2 nM
GI50 (SF-268 CNS): < 10 nM
TGI (SF-268 CNS): 913 nM
GI50 (HOP-62 NSCLC): < 10 nM
TGI (HOP-62 NSCLC): 88.3 nM
GI50 (OVCAR-5 ovarian): 11.4 nM
TGI (OVCAR-5 ovarian): 21600 nM
GI50 (DU-145 prostate): < 10.7 nM
TGI (DU-145 prostate): > 30700 nM
GI50 (T-47D breast): < 10 nM
TGI (T-47D breast): > 100000 nM
GI50 (NCI-H23 lung): < 10 nM
TGI (NCI-H23 lung): 80.2 nM
GI50 (NCI-H226 lung): < 10 nM
TGI (NCI-H226 lung): 33.5 nM
GI50 (SF-295 CNS): < 10 nM
TGI (SF-295 CNS): 1530 nM
GI50 (MDA-MB-231 breast): 15.2 nM
GI50 (UACC-62 melanoma): < 10 nM
TGI (UACC-62 melanoma): 12.5 nM
GI50 (NCI/ADR-RES ovarian): 541 nM
TGI (NCI/ADR-RES ovarian): > 100000 nM
GI50 (UACC-257 melanoma): < 10 nM
GI50 (NCI-H522 lung): < 10 nM
TGI (NCI-H522 lung): < 11.6 nM
GI50 (PC-3 prostate): < 10 nM
TGI (PC-3 prostate): 19700 nM
GI50 (OVCAR-8 ovarian): < 10 nM
GI50 (MDA-MB-435): < 10 nM
TGI (MDA-MB-435): 24.7 nM
GI50 (EKVX NSCLC): 22 nM
GI50 (BT-549 breast): < 10 nM
TGI (BT-549 breast): 36.3 nM
GI50 (KM12 colon): < 10 nM
TGI (KM12 colon): 793 nM
GI50 (MALME-3M melanoma): < 10 nM
TGI (MALME-3M melanoma): 28.2 nM
GI50 (SN12C renal): < 10 nM
TGI (SN12C renal): > 100000 nM
GI50 (MCF7 breast): < 10 nM
TGI (MCF7 breast): > 100000 nM
GI50 (OVCAR-4 ovarian): 14 nM
TGI (OVCAR-4 ovarian): 2030 nM
GI50 (HT29 colon): < 10 nM
GI50 (ACHN renal): < 10 nM
TGI (ACHN renal): 4390 nM
GI50 (SK-OV-3 ovarian): 19.2 nM
TGI (SK-OV-3 ovarian): > 100000 nM
GI50 (SW-620 colon): < 10 nM
TGI (SW-620 colon): 17700 nM
GI50 (SK-MEL-2 melanoma): < 10 nM
TGI (SK-MEL-2 melanoma): < 15.2 nM
GI50 (786-0 renal): < 10 nM
TGI (786-0 renal): > 100000 nM
GI50 (MOLT-4 leukemia): < 10 nM
GI50 (CAKI-1 renal): 59.6 nM
GI50 (IGROV1 ovarian): < 10 nM
TGI (IGROV1 ovarian): 5900 nM
GI50 (HOP-92 NSCLC): < 10 nM
TGI (HOP-92 NSCLC): 98.9 nM
GI50 (HCT-116 colon): < 10 nM
TGI (HCT-116 colon): > 100000 nM
GI50 (HL-60(TB) leukemia): < 16.5 nM
TGI (HL-60(TB) leukemia): 212 nM
GI50 (OVCAR-3 ovarian): < 10 nM
TGI (OVCAR-3 ovarian): 32 nM
GI50 (NCI-H460 lung): < 10 nM
TGI (NCI-H460 lung): > 32700 nM
GI50 (UO-31 renal): 30.2 nM
TGI (UO-31 renal): 206 nM
GI50 (U251 CNS): < 10 nM
GI50 (SR leukemia): < 10 nM
TGI (SR leukemia): > 100000 nM
GI50 (A498 renal): < 10.7 nM
TGI (A498 renal): 29.4 nM
GI50 (COLO 205 colon): < 10 nM
TGI (COLO 205 colon): 16.3 nM
GI50 (K-562 leukemia): < 10 nM
TGI (K-562 leukemia): > 100000 nM
GI50 (SNB-75 CNS): < 10.9 nM
TGI (SNB-75 CNS): 39 nM
